Data published in patent publication US9358226B2, “Triarylmethane analogs and their use in treating cancers” (Emory University, priority 2007, dated 2016).

Experiments:
[1] = biological target: T1, Nox4 (Homo sapiens, UniProt Q9NPH5); assay: H2O2 production, homovanillic acid assay, HEK293 Nox4-11 cells; type: cell-based; conditions: 1 hour 37° C.
T1 construct: expressed in transfected cells; host or cells: HEK293 Nox4-11 cells
T1 sequence (Q9NPH5 1-578): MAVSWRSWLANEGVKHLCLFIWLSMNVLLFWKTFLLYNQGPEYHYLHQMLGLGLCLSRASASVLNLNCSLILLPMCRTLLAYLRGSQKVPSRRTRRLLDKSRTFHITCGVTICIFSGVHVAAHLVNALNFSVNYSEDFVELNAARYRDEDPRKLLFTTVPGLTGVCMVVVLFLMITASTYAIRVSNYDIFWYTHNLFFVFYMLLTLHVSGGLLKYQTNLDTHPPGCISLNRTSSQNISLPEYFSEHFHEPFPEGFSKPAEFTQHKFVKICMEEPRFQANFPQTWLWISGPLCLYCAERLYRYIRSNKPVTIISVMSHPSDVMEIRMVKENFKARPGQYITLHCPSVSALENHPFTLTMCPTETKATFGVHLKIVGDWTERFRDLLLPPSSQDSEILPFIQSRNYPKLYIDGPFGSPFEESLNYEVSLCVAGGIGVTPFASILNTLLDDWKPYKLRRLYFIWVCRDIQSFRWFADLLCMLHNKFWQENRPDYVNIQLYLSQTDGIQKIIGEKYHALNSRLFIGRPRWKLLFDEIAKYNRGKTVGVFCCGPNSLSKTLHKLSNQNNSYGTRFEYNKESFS
T1 sequence (P13498 2-195 partner limits assumed): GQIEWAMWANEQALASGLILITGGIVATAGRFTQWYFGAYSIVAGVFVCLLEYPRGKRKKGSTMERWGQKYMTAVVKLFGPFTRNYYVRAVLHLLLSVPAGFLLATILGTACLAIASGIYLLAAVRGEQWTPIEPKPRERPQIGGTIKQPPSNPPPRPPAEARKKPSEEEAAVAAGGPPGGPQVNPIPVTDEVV
Method: After 1 hour incubation at 37° C., the reaction was stopped and H2O2 production was measured using the homovanillic acid assay. The ability of these drugs to inhibit production of H2O2 is shown as a percentage relative to the untreated control (100%). […] Optimal Nox2 activity requires phorbol 12-myristate 13-acetate stimulation whereas Nox4 activity is constitutive.
H2O2 release was measured using the homovanillic acid assay as described previously (Martyn, 2006). Briefly, 1.5-1.75×10^5 cells/well of a 12-well plate were seeded. The following day, cells were washed once with Hank's balanced salt solution and then preincubated for 15 minutes with either gentian violet (10-20 nM) or brilliant green (0.5-1.0 μM) in 1 ml of media. The cells were then washed once with Hank's balanced salt solution. Gentian violet or brilliant green was added at the same concentrations as in pretreatment to 0.5 ml of homovanillic acid assay solution (100 μM homovanillic acid assay, 4 U/ml horseradish peroxidase in Hank's balanced salt solution with Ca^2+ and Mg^2+) and incubated with the cells for 1 hour at 37° C. Cos-phox cells were additionally stimulated with 0.4 μg/ml phorbol 12-myristate 13-acetate. […] Fluorescence was read on a BioTek Synergy HT (BioTek Instruments Inc., Winooski, Vermont, […].) with an excitation of 320 nm and emission of 440 nm.

[2] = tested on: ang-2 mRNA; assay: Quantitative reverse transcription-PCR for ang-2 in bEnd.3 cells; type: cell-based, murine; conditions: 6.5 hours
Method: bEnd.3 cells were seeded equally into six T-75 flasks and 24 hours later were treated with 0, 1, 5, 10, 15, and 20 μM concentrations of gentian violet (Sigma-Aldrich, no. G2039) in ethanol for 6.5 hours. RNA was extracted and purified using TRI reagent (Sigma-Aldrich, T9424) and measured using spectrophotometer (Perkin-Elmer UV/VIS, Wellesley, Mass.). RNA (1 μg) was used for DNase Amplification (Invitrogen, no. 18068-015, Carlsbad, Calif.) followed by first-strand synthesis for reverse transcription-PCR (Invitrogen SuperScript, no. 12371-019). 96-well Optical Reaction Plate (ABI PRISM, no. 128, Applied Biosystems, Foster City, Calif.) was used for the reverse transcription-PCR reaction. A measure of 2.5 μl of template, which had been diluted 1:10 in crosslinked water, was used in each well and the experiment was performed in triplicate. Ang pt2 (Applied Biosystems, Taqman Gene Expression Assay, Mm00545822_ml) and 18S (Applied Biosystems Taqman Gene Expression Assay, Hs99999901_sl) primers were used along with crosslinked molecular grade water (Cellgro, Mediatech, Inc., Herndon, Va.) and master mix (Applied Biosystems TaqMan Fast Universal PCR Master Mix (2^x)). The reaction was run on the 7900 Applied Biosystems Reader for Absolute Quantification for 96-well plates. C values were analyzed by ΔΔCt method, and the standard error of the mean was calculated (FIG. 3b). The same protocol was used for treatment with brilliant green (Sigma, no. B6756), except that the concentrations used were 0, 0.1, 0.25, 0.5, and 0.75 μM (FIG. 3a).

[3] = tested on: bEnd.3 hemangiomas; assay: bEnd.3 hemangioma in vivo, intralesional treatment
Method: In order to determine if compounds that inhibit ang-2 formation in vitro would ameliorate hemangioma formation in vivo, we injected one million bEnd.3 cells subcutaneously into nine nude mice.
For each treatment condition, three mice were injected with 1,000,000 bEnd.3 cells and received intralesional injection with either vehicle control, brilliant green or gentian viol et (from left to right in photo) on days 9 and 14. Animals were euthanized on day 20, secondary to tumor burden in the control animals.
For each treatment condition, three mice were subcutaneously injected with one million bEnd.3 cells and monitored for tumor development. On day 9, tumors were measured in all nine animals, and there was no significant difference in tumor volume before the initiation of treatment. Each mouse then received intralesional injection with either 0.33 ml vehicle control, brilliant green (5 mg/kg, dissolved in […] ethanol and 900 μl intralipid) or gentian violet (5 mg/kg, dissolved in 100 μl ethanol and 900 μl intralipid) on days 9 and 14. No toxicity was noted following injection. Animals were euthanized on day 20, secondary to tumor burden in the control animals. Photos represent average tumor burden in each of the three groups (FIG. 3a), and tumor volume (mm^3) is graphically depicted (FIG. 3b). Error bars represent the standard error of the mean.

inhibition of Nox4 activity (H2O2 production) [1]: inhibited
SMILES: CN(C)c1ccc(C(=C2C=CC(=[N+](C)C)C=C2)c2ccc(N(C)C)cc2)cc1 [Gentian Violet (GV), hexamethyl pararosaniline chloride]
ang2 expression compared to control ([2]; 1 and 5 μM): increased | inhibition of ang-2 mRNA ([2]; higher concentrations (above 5 μM, up to 20 μM)): 70-90% | decrease in tumor size compared to control ([3]; 5 mg/kg intralesional on days 9 and 14, euthanized day 20): 92.6% | toxicity as a result of treatment ([3]; mouse, in vivo, 5 mg/kg): Neither local nor systemic toxicity was observed
